Experimental data from patent US4863946A, “2-[2H-(1,3-dihydroisoindole)alkylene]-4,5-dihydroimidazoles and pharmaceutical compositions thereof” (Beecham Group plc, priority 1985, dated 1989).
Structures can show the parent of a compound that is named as a salt.

Molecular target: T1, α2-Adrenoceptor (Homo sapiens, UniProt P08913)
T1 construct: from tissue; host or cells: human platelets (membranes)
T1 sequence (P08913 1-465): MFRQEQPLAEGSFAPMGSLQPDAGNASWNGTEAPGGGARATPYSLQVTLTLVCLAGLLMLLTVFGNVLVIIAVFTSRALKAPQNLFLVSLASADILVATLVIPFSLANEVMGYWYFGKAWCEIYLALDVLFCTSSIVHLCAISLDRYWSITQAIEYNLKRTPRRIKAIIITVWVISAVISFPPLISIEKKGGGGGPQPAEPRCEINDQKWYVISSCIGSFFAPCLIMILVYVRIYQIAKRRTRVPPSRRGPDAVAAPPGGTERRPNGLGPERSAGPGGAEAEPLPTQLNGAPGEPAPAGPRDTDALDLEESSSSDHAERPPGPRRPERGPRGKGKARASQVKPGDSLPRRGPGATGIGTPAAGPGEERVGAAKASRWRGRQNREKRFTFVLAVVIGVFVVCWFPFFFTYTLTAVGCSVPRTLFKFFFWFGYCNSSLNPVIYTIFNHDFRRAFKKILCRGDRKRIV
Assay: α2-Adrenoceptor Binding ([3H] Rauwolscine, human platelet membranes)
Settings: [3H] Rauwolscine 0.5-1.0 nM, 30 minutes at 30° C., read-out: Binding Affinity. Ki
Description: (A) α2-Adrenoceptor Binding
Human platelet membranes were incubated with [^3 H] Rauwolscine (0.5-1.0 nM) for 30 minutes at 30° C. with varying concentrates of the drug (0.1-10,000 nM). The binding assay was stopped by filtering and rinsing on GF/B glass fibre filters. Binding Affinity (Ki) was calculated using the Ching Prussoff equation.

Row | SMILES | Ki [nM]
1 | c1ccc2c(c1)CN(CC1=NCCN1)C2 [Example 1, 2-[2H-(1,3-Dihydroisoindole)methyl]-4,5-dihydroimidazole] | 5
2 | Clc1cccc2c1CN(CC1=NCCN1)C2 [Example 2, 2-[2H-(4-Chloro-1,3-dihydroisoindole)methyl]-4,5-dihydroimidazole] | 7
3 | Clc1ccc2c(c1)CN(CC1=NCCN1)C2 [Example 3, 2-[2H-(5-Chloro-1,3-dihydroisoindole)methyl]-4,5-dihydroimidazole] | 13

The remaining lines, values ahead:

Row | Ki [nM] | SMILES
4 | 20 | c1ccc2c(c1)CCN(CC1=NCCN1)C2 [Example 4, 2-[(1,2,3,4-Tetrahydroisoquinoline)methyl]-4,5-dihydroimidazole]
5 | 164 | Fc1ccc2c(c1)CN(CC1=NCCN1)C2 [Example 5, 2-[2H-(5-Fluoro-1,3-dihydroisoindole)methyl]-4,5-dihydroimidazole]
6 | 89 | COc1ccc2c(c1)CN(CC1=NCCN1)C2 [Example 6, 2-[2H-(5-Methoxy-1,3-dihydroisoindole)methyl]-4,5 dihydroimidazole dihydrochloride]
7 | 22 | Cc1ccc2c(c1)CN(CC1=NCCN1)C2 [Example 7, 2-[2H-(5-Methyl-1,3-dihydroisoindole)methyl]-4,5-dihydroimidazole]
